Measured values: patent publication US20120171274A1, “TRANSDERMAL PATCH” (priority 2006, published 2012)

Assays:
Type in all cases: physicochemical
[1] = Solvency of the active substance in monomer (visual inspection); set-up: key: Excellent: The active substance was not found to have been precipitated in the solution of active substance both immediately after the preparation and after the preservation for 7 days.; Good: The active substance was found to have been precipitated in the solution of active substance immediately after the preparation, but the active substance was not found to have been precipitated in the solution of active substance after the preservation for 7 days.; Poor: The active substance was found to have been precipitated in the solution of active substance both immediately after the preparation and after the preservation for 7 days; details: 3 parts active substance per 100 parts monomer, 25° C., 7 days
[2] = Residual rate of the active substance in monomer solution (HPLC); details: for Residual Rate of active substance, Immediately after Preparation: 3 parts per 100 parts monomer; for Residual Rate of active substance, after 7 Days: preserved at 25° C. for 7 days
[3] = Solvency of DMAE in fatty acid ester or additive; details: 50 parts DMAE in 950 parts, 25° C.
Experimental: When a crystal of DMAE was precipitated […], and when a crystal of DMAE was not precipitated, the solvency was evaluated to be “poor”.

[4] = Solubility of DMAE at 25° C. (HPLC); details: g per 100 g of solvent
[5] = monomer: 2-Ethylhexyl Methacrylate

COc1ccc(OC)c(C(O)CN)c1 (stereo not shown) [DMAE, 2-amino-1-(2′,5′-dimethoxyphenyl)ethanol]
Solvency of active substance ([1]; monomer: 1-Vinyl-2-Pyrrolidone): Poor
Solvency of active substance ([1]; monomer: 2-Ethylhexyl Acrylate): Poor
Solvency of active substance [1, 5]: Poor
Solvency of active substance ([1]; monomer: Acrylic Acid): Excellent
Solvency of active substance ([1]; monomer: Butyl Acrylate): Good
Solvency of active substance ([1]; monomer: Butyl Methacrylate): Poor
Solvency of active substance ([1]; monomer: Dodecyl Methacrylate): Poor
Solvency of active substance ([1]; monomer: Ethyl Acrylate): Excellent
Residual Rate of active substance, Immediately after Preparation ([2]; monomer: 1-Vinyl-2-Pyrrolidone): 100 % by weight
Residual Rate of active substance, after 7 Days ([2]; monomer: 1-Vinyl-2-Pyrrolidone): 100 % by weight
Residual Rate of active substance, Immediately after Preparation ([2]; monomer: 2-Ethylhexyl Acrylate): 39 % by weight
Residual Rate of active substance, after 7 Days ([2]; monomer: 2-Ethylhexyl Acrylate): 11 % by weight
Residual Rate of active substance, Immediately after Preparation [2, 5]: 99 % by weight
Residual Rate of active substance, after 7 Days [2, 5]: 99 % by weight
Residual Rate of active substance, Immediately after Preparation ([2]; monomer: Acrylic Acid): 99 % by weight
Residual Rate of active substance, after 7 Days ([2]; monomer: Acrylic Acid): 97 % by weight
Residual Rate of active substance, Immediately after Preparation ([2]; monomer: Butyl Acrylate): 27 % by weight
Residual Rate of active substance, Immediately after Preparation ([2]; monomer: Butyl Methacrylate): 98 % by weight
Residual Rate of active substance, after 7 Days ([2]; monomer: Butyl Methacrylate): 98 % by weight
Residual Rate of active substance, Immediately after Preparation ([2]; monomer: Dodecyl Methacrylate): 100 % by weight
Residual Rate of active substance, after 7 Days ([2]; monomer: Dodecyl Methacrylate): 99 % by weight
Solvency of DMAE ([3]; solvent Butylene Glycol): Poor
Solvency of DMAE ([3]; solvent Diethyl Sebacate): Excellent
Solvency of DMAE ([3]; solvent Hexyl Laurate): Excellent
Solvency of DMAE ([3]; solvent Isopropyl Myristate): Excellent
Solvency of DMAE ([3]; solvent Isopropyl Palmitate): Excellent
Solvency of DMAE ([3]; solvent Isostearic Acid): Poor
Solvency of DMAE ([3]; solvent Liquid Paraffin): Excellent
Solvency of DMAE ([3]; solvent Medium-chain Triglyceride): Excellent
Solvency of DMAE ([3]; solvent Monoethanolamine): Poor
Solvency of DMAE ([3]; solvent Octanediol): Poor
Solvency of DMAE ([3]; solvent Octyldodecyl Myristate): Excellent
Solvency of DMAE ([3]; solvent Oleic Acid): Excellent
Solvency of DMAE ([3]; solvent Oleyl Alcohol): Excellent
Solvency of DMAE ([3]; solvent Polyoxyethylene (2) Lauryl Ether): Excellent
Solvency of DMAE ([3]; solvent Propylene Glycol): Poor
Solvency of DMAE ([3]; solvent Squalane): Excellent
Solvency of DMAE ([3]; solvent Triacetin): Poor
Solubility of DMAE ([4]; in Diethyl Sebacate): 0.9 g
Solubility of DMAE ([4]; in Hexyl Laurate): 0.2 g
Solubility of DMAE ([4]; in Isopropyl Myristate): 0.2 g
Solubility of DMAE ([4]; in Isopropyl Palmitate): 0.2 g
Solubility of DMAE ([4]; in Liquid Paraffin): 0.02 g
Solubility of DMAE ([4]; in Medium-chain Triglyceride): 0.3 g
Solubility of DMAE ([4]; in Octyldodecyl Myristate): 0.05 g
Solubility of DMAE ([4]; in Oleic Acid): 3.7 g
Solubility of DMAE ([4]; in Oleyl Alcohol): 2.5 g
Solubility of DMAE ([4]; in Polyoxyethylene (2) Lauryl Ether): 3.7 g
Solubility of DMAE ([4]; in Squalane): 0.01 g

COc1ccc2c(c1)c(CC(=O)O)c(C)n2C(=O)c1ccc(Cl)cc1 [IMT, indomethacin]
Solvency of active substance ([1]; monomer: 1-Vinyl-2-Pyrrolidone): Excellent
Solvency of active substance ([1]; monomer: 2-Ethylhexyl Acrylate): Poor
Solvency of active substance [1, 5]: Poor
Solvency of active substance ([1]; monomer: Acrylic Acid): Excellent
Solvency of active substance ([1]; monomer: Butyl Acrylate): Poor
Solvency of active substance ([1]; monomer: Butyl Methacrylate): Poor
Solvency of active substance ([1]; monomer: Dodecyl Methacrylate): Poor
Solvency of active substance ([1]; monomer: Ethyl Acrylate): Poor
Residual Rate of active substance, Immediately after Preparation ([2]; monomer: 1-Vinyl-2-Pyrrolidone): 100 % by weight
Residual Rate of active substance, after 7 Days ([2]; monomer: 1-Vinyl-2-Pyrrolidone): 100 % by weight
Residual Rate of active substance, Immediately after Preparation ([2]; monomer: 2-Ethylhexyl Acrylate): 100 % by weight
Residual Rate of active substance, after 7 Days ([2]; monomer: 2-Ethylhexyl Acrylate): 100 % by weight
Residual Rate of active substance, Immediately after Preparation [2, 5]: 100 % by weight
Residual Rate of active substance, after 7 Days [2, 5]: 100 % by weight
Residual Rate of active substance, Immediately after Preparation ([2]; monomer: Acrylic Acid): 100 % by weight
Residual Rate of active substance, after 7 Days ([2]; monomer: Acrylic Acid): 100 % by weight
Residual Rate of active substance, Immediately after Preparation ([2]; monomer: Butyl Acrylate): 100 % by weight
Residual Rate of active substance, after 7 Days ([2]; monomer: Butyl Acrylate): 100 % by weight
Residual Rate of active substance, Immediately after Preparation ([2]; monomer: Butyl Methacrylate): 100 % by weight
Residual Rate of active substance, after 7 Days ([2]; monomer: Butyl Methacrylate): 99 % by weight
Residual Rate of active substance, Immediately after Preparation ([2]; monomer: Dodecyl Methacrylate): 100 % by weight
Residual Rate of active substance, after 7 Days ([2]; monomer: Dodecyl Methacrylate): 100 % by weight
Residual Rate of active substance, Immediately after Preparation ([2]; monomer: Ethyl Acrylate): 100 % by weight
Residual Rate of active substance, after 7 Days ([2]; monomer: Ethyl Acrylate): 99 % by weight

O=[N+]([O-])O[C@H]1CO[C@H]2[C@@H]1OC[C@H]2O[N+](=O)[O-] [ISDN, isosorbide dinitrate]
Solvency of active substance ([1]; monomer: 1-Vinyl-2-Pyrrolidone): Excellent
Solvency of active substance ([1]; monomer: 2-Ethylhexyl Acrylate): Excellent
Solvency of active substance [1, 5]: Excellent
Solvency of active substance ([1]; monomer: Acrylic Acid): Excellent
Solvency of active substance ([1]; monomer: Butyl Acrylate): Excellent
Solvency of active substance ([1]; monomer: Butyl Methacrylate): Excellent
Solvency of active substance ([1]; monomer: Dodecyl Methacrylate): Excellent
Solvency of active substance ([1]; monomer: Ethyl Acrylate): Excellent
Residual Rate of active substance, Immediately after Preparation ([2]; monomer: 1-Vinyl-2-Pyrrolidone): 100 % by weight
Residual Rate of active substance, after 7 Days ([2]; monomer: 1-Vinyl-2-Pyrrolidone): 100 % by weight
Residual Rate of active substance, Immediately after Preparation ([2]; monomer: 2-Ethylhexyl Acrylate): 100 % by weight
Residual Rate of active substance, after 7 Days ([2]; monomer: 2-Ethylhexyl Acrylate): 100 % by weight
Residual Rate of active substance, Immediately after Preparation [2, 5]: 100 % by weight
Residual Rate of active substance, after 7 Days [2, 5]: 99 % by weight
Residual Rate of active substance, Immediately after Preparation ([2]; monomer: Acrylic Acid): 100 % by weight
Residual Rate of active substance, after 7 Days ([2]; monomer: Acrylic Acid): 100 % by weight
Residual Rate of active substance, Immediately after Preparation ([2]; monomer: Butyl Acrylate): 100 % by weight
Residual Rate of active substance, after 7 Days ([2]; monomer: Butyl Acrylate): 100 % by weight
Residual Rate of active substance, Immediately after Preparation ([2]; monomer: Butyl Methacrylate): 100 % by weight
Residual Rate of active substance, after 7 Days ([2]; monomer: Butyl Methacrylate): 100 % by weight
Residual Rate of active substance, Immediately after Preparation ([2]; monomer: Dodecyl Methacrylate): 100 % by weight
Residual Rate of active substance, after 7 Days ([2]; monomer: Dodecyl Methacrylate): 100 % by weight
Residual Rate of active substance, Immediately after Preparation ([2]; monomer: Ethyl Acrylate): 100 % by weight
Residual Rate of active substance, after 7 Days ([2]; monomer: Ethyl Acrylate): 100 % by weight

CC(C)(C)NCC(O)c1ccccc1Cl (stereo not shown) [TB, tulobuterol]
Solvency of active substance ([1]; monomer: 1-Vinyl-2-Pyrrolidone): Excellent
Solvency of active substance ([1]; monomer: 2-Ethylhexyl Acrylate): Excellent
Solvency of active substance [1, 5]: Excellent
Solvency of active substance ([1]; monomer: Acrylic Acid): Excellent
Solvency of active substance ([1]; monomer: Butyl Acrylate): Excellent
Solvency of active substance ([1]; monomer: Butyl Methacrylate): Excellent
Solvency of active substance ([1]; monomer: Dodecyl Methacrylate): Good
Solvency of active substance ([1]; monomer: Ethyl Acrylate): Excellent
Residual Rate of active substance, Immediately after Preparation ([2]; monomer: 1-Vinyl-2-Pyrrolidone): 100 % by weight
Residual Rate of active substance, after 7 Days ([2]; monomer: 1-Vinyl-2-Pyrrolidone): 100 % by weight
Residual Rate of active substance, Immediately after Preparation ([2]; monomer: 2-Ethylhexyl Acrylate): 100 % by weight
Residual Rate of active substance, after 7 Days ([2]; monomer: 2-Ethylhexyl Acrylate): 88 % by weight
Residual Rate of active substance, Immediately after Preparation [2, 5]: 100 % by weight
Residual Rate of active substance, after 7 Days [2, 5]: 100 % by weight
Residual Rate of active substance, Immediately after Preparation ([2]; monomer: Acrylic Acid): 100 % by weight
Residual Rate of active substance, after 7 Days ([2]; monomer: Acrylic Acid): 96 % by weight
Residual Rate of active substance, Immediately after Preparation ([2]; monomer: Butyl Acrylate): 100 % by weight
Residual Rate of active substance, after 7 Days ([2]; monomer: Butyl Acrylate): 81 % by weight
Residual Rate of active substance, Immediately after Preparation ([2]; monomer: Butyl Methacrylate): 100 % by weight
Residual Rate of active substance, after 7 Days ([2]; monomer: Butyl Methacrylate): 100 % by weight
Residual Rate of active substance, Immediately after Preparation ([2]; monomer: Dodecyl Methacrylate): 100 % by weight
Residual Rate of active substance, after 7 Days ([2]; monomer: Dodecyl Methacrylate): 100 % by weight
Residual Rate of active substance, Immediately after Preparation ([2]; monomer: Ethyl Acrylate): 100 % by weight
Residual Rate of active substance, after 7 Days ([2]; monomer: Ethyl Acrylate): 70 % by weight
